The values below are quoted from earlier work in US5122371A (priority 1991, dated 1992).

One series relates to Na+ K+-ATPase enzyme. The following applies: known property of cardiac glycosides.
For series [1] the following is noted: in vivo.

Take `C[C@H]1O[C@@H](O[C@H]2[C@@H](O)C[C@H](O[C@H]3[C@@H](O)C[C@H](O[C@H]4CC[C@@]5(C)[C@H](CC[C@@H]6[C@@H]5C[C@@H](O)[C@]5(C)[C@@H](C7=CC(=O)OC7)CC[C@]65O)C4)O[C@@H]3C)O[C@@H]2C)C[C@H](O)[C@@H]1O` [digoxin]: the “Effect on Na+ K+-ATPase enzyme activity” value in the series with Na+ K+-ATPase enzyme is recorded as “inhibit”.

Turning to `C[C@@H]1O[C@@H](O[C@H]2C[C@@H](O)[C@]3(CO)[C@H]4[C@H](O)C[C@]5(C)[C@@H](C6=CC(=O)OC6)CC[C@]5(O)[C@@H]4CC[C@]3(O)C2)[C@H](O)[C@H](O)[C@H]1O` [ouabain], the “Effect on Na+ K+-ATPase enzyme activity” value in the series on Na+ K+-ATPase enzyme is given as “inhibit”. For the same molecule, the half-life in series [1] is 21 h.

Consider digitalis, for which the “Effect on Na+ K+-ATPase enzyme activity” value in the series on Na+ K+-ATPase enzyme was “inhibit”.

One may read the half-life as the time needed for the level to fall by half in the phase considered.
